Measurements taken from ChEMBL document CHEMBL5537197, “Discovery of Novel Coumarin-quinolinium Derivatives as Pan-KRAS Translation Inhibitors by Targeting 5'-UTR RNA G-Quadruplexes” (J Med Chem, 2024).
Activity calls are given as the source filed them. No cut-off for these calls is given here.

Experiments:
MIA PaCa-2 [1] = assay: Cytotoxicity against human MIA PaCa-2 cells harboring KRAS G12C mutant assessed as cell growth inhibition incubated for 24 hrs by MTT assay; format: functional, cell-based; settings: MIA PaCa-2, 24 h
MIA PaCa-2 [2] = assay: Antitumor activity against human MIA PaCa-2 cells xenografted in BALB/C-nu/nu mouse model assessed as decrease of tumor volume administered intraperitoneally everyday for 18 days; format: functional, cell-based; settings: dose 2.5-5 mg/kg, route ip, time 18.0 day
Quadruplex DNA [3] = assay: Disruption of DHX36/KRAS rG-Quadruplex (unknown origin) by ELISA; format: nucleic-acid assay; settings: dose 20.0 µM
Quadruplex DNA [4] = assay: Binding affinity to KRAS utr-z G-Quadruplex (unknown origin) assessed as dissociation constant by fluorescence spectroscopy; format: nucleic-acid assay
[5] = target: GTPase KRas (Homo sapiens) (UniProt P01116); assay: Inhibition of KRAS in human MIA PaCa-2 cells assessed as decrease in AKT phosphorylation incubated for 24 hrs by Western blot analysis; format: cell-based; settings: dose 1.25-5 µM
Chain of GTPase KRas (Homo sapiens) (P01116 whole entry, looked up): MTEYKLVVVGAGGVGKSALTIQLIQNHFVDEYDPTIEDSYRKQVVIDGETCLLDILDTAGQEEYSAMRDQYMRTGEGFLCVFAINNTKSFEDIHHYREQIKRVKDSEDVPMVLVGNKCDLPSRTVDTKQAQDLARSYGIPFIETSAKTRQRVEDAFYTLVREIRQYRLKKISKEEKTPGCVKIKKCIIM

[6] = target: GTPase KRas (Homo sapiens) (UniProt P01116); assay: Inhibition of KRAS in human MIA PaCa-2 cells assessed as decrease in ERK phosphorylation incubated for 24 hrs by Western blot analysis; format: cell-based; settings: dose 1.25-5 µM
[7] = Toxicity in BALB/C-nu/nu mouse model xenografted with human MIA PaCa-2 cells assessed as toxic sigs in viscera at 2.5 to 5 mg/kg,ip everyday for 18 days; format: organism-based; settings: in vivo, 432 h, dose 2.5-5 mg/kg, time 18 day
[8] = target: GTPase KRas (Homo sapiens) (UniProt P01116); assay: Inhibition of KRAS in human MIA PaCa-2 cells assessed as decrease in ERK phosphorylation at 2.5 uM by Western blot analysis; format: cell-based; settings: time <= 24.0 hrs, TDE = time-dependent effect
Quadruplex DNA [9] = assay: Binding affinity to KRAS utr-1 G-Quadruplex (unknown origin) assessed as dissociation constant by fluorescence spectroscopy; format: nucleic-acid assay
Quadruplex DNA [10] = assay: Binding affinity to TERRA G-Quadruplex (unknown origin) assessed as melting temperature at 25 uM at 25 to 95 degreeC by CD spectroscopy (reference value: 84.2 degreeC); format: nucleic-acid assay
PANC-1 = assay: Cytotoxicity against human PANC-1 cells harboring KRAS G12D mutant assessed as cell growth inhibition incubated for 24 hrs by MTT assay; format: functional, cell-based; settings: PANC-1, 24 h
[11] = Cytotoxicity against human LX2 cells harboring wild-type KRAS assessed as cell growth inhibition incubated for 24 hrs by MTT assay; format: toxicity, cell-based, LX-2
[12] = target: GTPase KRas (Homo sapiens) (UniProt P01116); assay: Inhibition of KRAS in human MIA PaCa-2 cells assessed as decrease in total protein level at 1.25 to 5 uM incubated for 24 hrs by Western blot analysis; format: cell-based; settings: dose 1.25-5 µM
NCI-H358 = assay: Effect on KRAS mRNA level in human NCI-H358 cells harboring KRAS G12C mutant at upto 5 uM incubated upto 48 hrs by RT-qPCR analysis; format: functional, cell-based
MIA PaCa-2 [13] = assay: Induction of cell cycle arrest at G2/M phase in human MIA PaCa-2 cells incubated for 24 hrs by PI staining based HCS analysis; format: functional; settings: dose 1.25-5 µM
Quadruplex RNA [14] = assay: Inhibition of KRAS RNA G-Quadruplex (unknown origin) translation transfected in HEK293T cells assessed as decrease in relative luciferase activity upto 5 uM incubated for 24 hrs by Dual-luciferase reporter assay; format: cell-based
MIA PaCa-2 [15] = assay: In vivo inhibition of KRAS in human MIA PaCa-2 cells xenografted in BALB/C-nu/nu mouse model at 2.5 to 5 mg/kg,ip everyday for 18 days by Western blot analysis; format: functional, organism-based; settings: dose 2.5-5 mg/kg, time 18.0 day
Quadruplex RNA [16] = assay: Binding affinity to NRAS RNA G-Quadruplex (unknown origin) assessed as melting temperature at 25 uM at 25 to 95 degreeC by CD spectroscopy (reference value: 82.2 degreeC); format: nucleic-acid assay
MIA PaCa-2 [17] = assay: Antitumor activity against human MIA PaCa-2 cells xenografted in BALB/C-nu/nu mouse model assessed as tumor growth inhibition at 5 mg/kg,ip everyday for 18 days relative to control; format: functional; settings: MIA PaCa-2, 432 h, time 18 day, read-out: TGI
U-87 MG = assay: Cytotoxicity against human U-87 MG cells harboring wild-type KRAS assessed as cell growth inhibition incubated for 24 hrs by MTT assay; format: functional, cell-based, U-87MG ATCC
[18] = tested on: GTPase KRas (Homo sapiens), P01116 [G12D]; assay: Inhibition of KRAS G12D mutant in human PANC-1 cells at 2.5 uM by Western blot analysis; format: cell-based; settings: time <= 48.0 hrs, TDE = time-dependent effect
Chain of GTPase KRas (Homo sapiens), P01116 [G12D] (P01116 whole entry G12D, looked up): as the sequence (P01116 whole entry, looked up) above, with G12D counted along it

[19] = tested on: GTPase KRas (Homo sapiens), P01116 [G12C]; assay: Inhibition of KRAS G12C mutant in human NCI-H358 cells incubated for 24 hrs by Western blot analysis; format: cell-based; settings: dose <= 5.0 µM
Chain of GTPase KRas (Homo sapiens), P01116 [G12C] (P01116 whole entry G12C): as the sequence (P01116 whole entry, looked up) above, with G12C counted along it

[20] = target: GTPase KRas (Homo sapiens) (UniProt P01116); assay: Inhibition of KRAS in human MIA PaCa-2 cells assessed as decrease in mTOR phosphorylation at 2.5 uM by Western blot analysis; format: cell-based; settings: time <= 24.0 hrs, TDE = time-dependent effect
HCT-116 = assay: Cytotoxicity against human HCT-116 cells harboring KRAS G13D mutant assessed as cell growth inhibition incubated for 24 hrs by MTT assay; format: functional, cell-based; settings: HCT-116, 24 h

For `CCN(CC)c1ccc2cc(/C=C/c3ccc4cc(F)c(NCCN5CCCC5)cc4[n+]3C)c(=O)oc2c1.[I-]`, the IC50 (MIA PaCa-2 [1]) was 33 µM, the Activity (MIA PaCa-2 [2]) was “Dose-Dependent Effect” and the Activity (Quadruplex DNA [3]) was “Dose-Dependent Effect”. The Kd (Quadruplex DNA [4]) was 2.3 µM, the inhibition [5] was “Dose-Dependent Effect” and the inhibition [6] was “Dose-Dependent Effect”. For the same molecule, the Activity [7] was “Non-Toxic”, the inhibition [8] was “Tde” and the Kd (Quadruplex DNA [9]) was 0.9 µM. For the same molecule, the Tm (Quadruplex DNA [10]) was 81.2 °C, the IC50 (PANC-1) was 5.6 µM and the IC50 at 24 h [11] was over 40 µM. The inhibition [12] was “Active”, the Activity (NCI-H358) was “inactive” and the Activity (MIA PaCa-2 [13]) was “Dose-Dependent Effect”. The inhibition (Quadruplex RNA [14]) was “Active”, the Activity (MIA PaCa-2 [15]) was “Active” and the Tm (Quadruplex RNA [16]) was 78.7 °C. For the same molecule, the inhibition in vivo at 5 mg/kg (MIA PaCa-2 [17]) was 70.3%, the IC50 (U-87 MG) was over 40 µM and the inhibition [18] was “Tde”. The inhibition [19] was “Dose-Dependent Effect”, the inhibition [20] was “Tde” and the IC50 (HCT-116) was 4 µM.
